{"source": "patent US7368279B2", "about": "“Three dimensional bioengineered smooth muscle tissue and sphincters and methods therefor” (The Regents of The University of Michigan, priority 2004, dated 2008)", "key": {"[1]": {"test_system": "isolated smooth muscle cells from the rabbit IAS", "assay": "Acetylcholine-induced contraction of isolated IAS smooth muscle cells (decrease in cell length)", "type": "cell-based", "details": "for contraction, percent decrease in cell length from control: 10^−7 M acetylcholine, HEPES buffer; for decrease in cell length: acetylcholine, 0 Ca2+/2 mM EGTA HEPES buffer", "from_the_text": "Smooth muscle cells were isolated from the internal anal sphincter (IAS) of New Zealand White rabbits as described previously (Bitar et al., Am J Physiol 260: G537-G542, 1991; Bitar et al., Am J Physiol 242: G400-G407, 1982). Briefly, the IAS, consisting of the most distal 3 mm of the circular muscle layer, ending at the junction of skin and mucosa, was removed by sharp dissection. The sphincter was rapidly cleaned and striped of connective tissue in ice cold carbonated Krebs solution containing 2% penicillin-streptomycin. The tissue was cut into small pieces and transferred to a 100 mm plate containing 15 ml of HEPES buffer (pH 7.4; NaCl (115 mM), KCl (5.7 mM), KH2PO4 (2.0 mM), HEPES (24.6 mM), CaCl2 (1.9 mM), MgCl2 (0.6 mM), glucose (5.6 mM), 0.01% soybean trypsin inhibitor, and 0.184 (wt/vol) DMEM) with 0.1% collagenase type II (Worthington Biochemical Corp., Lakewood, N.J.) for digestion in an incubator (37° C. with 5% CO2) for 1 hour. Fresh HEPES buffer (15 ml) with collagenase was added and the contents of the plate were mechanically dissociated using a 10 ml pipette and incubated for 1 additional hour. After the second digestion period, the cells were collected, centrifuged at 800×g for 10 minutes and the supernatant discarded. The cells were washed (3×) a to ensure removal of excess collagenase and ultimately re-suspended in either HEPES buffer or 0 Ca^2+/2 mM EGTA HEPES buffer (HEPES without CaCl2 and containing 2 mM EGTA). To determine the effect of acetylcholine on contraction of isolated muscle cells, acetylcholine (10^−7 M) was added to a suspension of isolated smooth muscle cells for 30 seconds or 4 minutes with untreated cells as controls. The reaction was stopped and cells were fixed by the addition of 0.1 ml of acrolein at a final concentration of 0.1%. Individual cell lengths were measured by computerized image micrometry (Bitar et al., Am J Physiol 242: G400-G407, 1982. Bitar et al., Science 216: 531-533, 1982). The length of cells in the control state or after addition of acetylcholine was obtained by measuring 30-50 cells encountered randomly in successive microscopic fields from each of three separate experiments. The contractile response is defined as the decrease in the average length of the cells counted and is expressed as the percent change from the control length."}, "bioengineered IAS rings": {"test_system": "bioengineered IAS rings", "assay": "Isometric force (contraction/relaxation) of bioengineered IAS rings", "type": "cell-based, rabbit", "description": "Excitability and contractility of bioengineered IAS rings was measured using techniques adapted from previous work (Dennis et al., In Vitro Cellular & Developmental Biology Animal 36: 327-335, 2000. Dennis et al., American Journal of Physiology Cell Physiology 280: C288-C295, 2001). The diameter of the sphincter rings was measured and used to calculate cross-sectional area (CSA). The bioengineered sphincters were separated from their molds using forceps (FIG. 1 Panel E) and the minimum ring diameter was measured using a calibrated eyepiece and a 5× or 10× objective lens on an inverted microscope (Zeiss Axiovert 25, Thornwood, N.Y.). The cross section was circular, and therefore the CSA was calculated using the measured diameter. To measure the passive baseline force, the differentiation media in the plate containing the bioengineered sphincter was replaced with 37° C. Krebs solution (NaCl (119 mM), KCl (4.6 mM), NaHCO3 (15 mM), CaCl2 (1.5 mM), MgCl2 (1.2 mM), […], and glucose (11 mM)) and the plate was placed on a heated aluminum platform, which maintained a temperature of 37° C. until the testing was complete. For contractility measurements, one end of the bioengineered sphincter was anchored by a stainless steel pin (10 mm×0.1 mm diameter) to the PDMS substrate within the plate, while another stainless steel pin was bent in the shape of a hook and attached by canning wax to a force transducer (resolution of 1.4 μN and range of 2mN) as previously described (Dennis et al., In Vitro Cellular & Developmental Biology Animal 36: 327-335, 2000, Macpherson et al., J Physiol 500: 523-533, 1997) and as depicted in FIG. 1 (Panels F and G). The bioengineered sphincter was stretched approximately 50% of its resting length using a three-axis micromanipulator. The ring was allowed to sit for 20 minutes in order to reestablish a stable baseline level of force (Pb), which was measured as the average baseline passive force preceding stimulation. All force measurements were collected at 100 samples/second for 60 seconds and recorded using a computer with LabVIEW data acquisition software (National Instruments, Austin, Tex.). A median filter of rank 2 was applied to all raw force data before being stored to minimize digitization noise without causing a phase delay for rapidly changing forces. The peak isometric force (ΔP) was determined by subtracting the Pb from the total force values. Specific force (sΔP) was calculated by dividing ΔP by the CSA. Data analysis was done using LabVIEW and Microsoft Excel software programs. Each measurement was repeated at least three times and the mean value was recorded. Contractions were induced in the rings by the addition of acetylcholine. Dose-response relationships of acetylcholine were investigated in the range of 10^−6M to 10^−10M. Incremental doses of acetylcholine were added after the maximal response of the preceding concentration and the establishment of a new baseline. Relaxation response in the rings was induced by the addition of 8-Bromoadenosine 3′:5′-Cyclic Monophosphate (8-br-cAMP). Maximal relaxation was achieved after approximately 4 minutes and therefore relaxation measurements are collective of four consecutive 1-minute data recordings."}}}
{"smiles": "CC(=O)OCC[N+](C)(C)C", "note": "[acetylcholine]", "values": [{"measurement": "contraction, percent decrease in cell length from control", "setting": "[1]; 30 seconds", "value": "28.85±3.20", "unit": "%"}, {"measurement": "contraction, percent decrease in cell length from control", "setting": "[1]; 4 minutes", "value": "27.09±4.43", "unit": "%"}, {"measurement": "decrease in cell length", "setting": "[1]; 30 seconds", "value": "0.5±4.47", "unit": "%"}, {"measurement": "decrease in cell length", "setting": "[1]; 4 minutes", "value": "4±3.91", "unit": "%"}, {"measurement": "concentration at which the concentration-dependent contractile response reaches a plateau", "setting": "bioengineered IAS rings; 10-fold incremental doses 10^−10 M to 10^−6 M", "value": "10^−7 M"}, {"measurement": "peak isometric force ΔP", "setting": "bioengineered IAS rings; 10^−7 M acetylcholine, Krebs buffer, sustained for 4 minutes", "value": "9.8±3.8", "unit": "μN"}, {"measurement": "maximal ΔP induced by acetylcholine stimulation", "setting": "bioengineered IAS rings; Krebs buffer", "value": 33.7, "unit": "μN"}]}
